≈ marks a conversion by molar mass, not a printed value.
Key:
[1] = Absorption test, concentration of the compounds in serum by HPLC; assay type: in vivo; conditions: mouse, mice, 100 mg/kg body weight, oral administration, serum at 1, 3, 5 and 24 hours, read-out: time at which concentration in serum reached a maximum
Experimental: An absorption test was performed using ketonitrile derivatives of the present invention (Compound Nos. […] and 155) on mice by dosing the derivatives in amounts of 100 mg/kg body weight. One, three, five, and 24 hours after administration of the compounds, blood was harvested and serum was separated therefrom. The concentration of the compounds in serum was determined by HPLC. As a result, Compound No. 155 and Compound No. 101 reached a maximum in concentration after 1 hour and 3 hours of administration, respectively.

in vivo = conditions: mouse, oral administration, single dose, suspended in aqueous 0.5% CMC solution, male mice, observed for 14 days
Experimental: Acute toxicity (LD50) of a ketonitrile derivative of the present invention (Compound No. 4) was tested using male mice (Slc:ddY, 5 weeks old). To groups of each 5 mice, the compounds suspended in aqueous 0.5% CMC solution were forcibly dosed orally at a single time so that the final dosages of 707, 1,000, 1,414, and 2,000 mg/kg were attained. […] As a result, LD50 value under conditions of oral administration was estimated to be higher than 2,000 mg/kg. Thus, the compound was confirmed to be quite non-toxic.
To groups of each 5 mice, the compounds suspended in aqueous 0.5% CMC solution were forcibly dosed orally at a single time so that the final dosages of 500, 1,000, 1,500, and 2,000 mg/kg were attained. […] As a result, the LD50 value was estimated to be higher than 2,000 mg/kg. Thus, the compounds were confirmed to be quite non-toxic.

[2] = tested on: Streptococcus aureus (TI-1); test: Antibacterial activity (IC), agar as in Example 8 (Example 16, Table 49); assay type: cell-based; conditions: 18 h
Procedure, shortened: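 Broth-grown […] aureus (TI-1) inoculated onto Mueller-Hinton agar containing compound, per the MRSA method; DMSO/water dilutions at final 100, 10 and 1 µg/ml, 10^6 CFU/ml inoculum. After 18 h at 37°C, growth inhibition judged by turbidity; IC reported as bands (100-10, 10-1, ≤1 µg/ml).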

[3] = tested on: Pasteurella multocida (Kobe-6); test: Antibacterial activity (IC), agar as in Example 8 (Example 17, Table 50); assay type: cell-based; conditions: 18 h, origin pig
Procedure, shortened: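 Agar dilution on Mueller-Hinton agar with compound at 100, 10 and 1 µg/ml, inoculated at 10^6 CFU/ml with pig-origin strain Kobe-6. After 18 h at 37 °C, IC scored from turbidity and reported as a band (≤100, ≤10, ≤1 µg/ml).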

[4] = tested on: methicillin-resistant Staphylococcus aureus (MRSA) from humans; test: Antibacterial activity (IC), agar as in Example 8 (Example 19, Table 52); assay type: cell-based; conditions: 18 h
Procedure, shortened: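 MRSA human isolate at 10^6 CFU/ml on Mueller-Hinton agar containing compound at 100, 10 or 1 µg/ml, grown 18 h at 37 °C. IC is the lowest tested level that inhibited growth, binned as ≤100, ≤10 or ≤1 µg/ml.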

Enterococcus from fish = test: Antibacterial activity (IC), agar as in Example 8, media with 1.5% NaCl, 25°C (Example 20, Tables 53-55); assay type: cell-based; conditions: for MIC: Enterococcus Seriolicida SE94-002
Procedure, shortened: (§1)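 Growth inhibition was scored by turbidity after culture at 25°C, with IC bands set from 2-fold-dilution MIC-equivalents. Samples were tested at final 100, 10 and 1 µg/ml in Mueller-Hinton agar with 1.5% NaCl, seeded with 10^6 CFU/ml of the fish isolates.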

Pasteurella from fish = test: as above; assay type: cell-based; conditions: for MIC: Pasteurella piscicida KP94-02
Procedure, shortened: as §1

[5] = tested on: Staphylococcus aureus (209-P); test: Antibacterial activity (IC), agar as in Example 8 (Example 15, Table 48); assay type: cell-based; conditions: 18 h
Procedure, shortened: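 Agar dilution with Mueller-Hinton agar containing sample at final 100, 10 and 1 µg/ml, inoculated to 10^6 CFU/ml. Incubated at 37°C for 18 h, growth inhibition judged by medium turbidity. IC bands at successive 2-fold dilution: 100-10, 10-1, or ≤1 µg/ml.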

[6] = tested on: Bordetella bronchiseptica (SM2-4); test: Antibacterial activity (IC), agar as in Example 8 (Example 18, Table 51); assay type: cell-based; conditions: 18 h
Experimental: (§2) The antibacterial action was evaluated by the inhibitory concentration (hereinafter abbreviated as IC) at which propagation of the bacteria cultured at 37°C for 18 hours was inhibited. Inhibition was determined by the turbidity of the medium. The expressions "IC≤100", "≤10", and "≤1" indicate that MIC-equivalent values obtained at the succesive […] dilution of the sample are 100-10 µg/ml, 10-1 µg/ml, and not more than 1 µg/ml, respectively. […] (In the subsequent Examples, the same rule applies correspondingly.) Table 39
(§3) A suitable amount of a sample was dissolved in dimethylsulfoxide (DMSO), after which the resulting solution was diluted with the same amount of sterilized distilled water to prepare a bulk sample of 1,000 µg/ml. Separately, a bacterial liquid for the test (methicillin-resistant Staphylococcus aureus (MRSA) isolated from humans) which had been cultured in Mueller-Hinton broth (product of DIFCO) was prepared and inoculated to a Mueller-Hinton agar (product of DIFCO) containing the sample so that the final inoculation amount of 10^6 CFU/ml was achieved. The final concentrations of the samples were 100, 10, and 1 µg/ml.
(§4) After culturing at 37°C for 18 hours, the antibacterial activity was evaluated in terms of IC in a manner similar to that described in Example 4.
(§5) In a manner similar to that described in Example 8, antibacterial activity of the invention compound was determined. The bacterium used for the test was Bordetella bronchiseptica (S1) and Bordetella bronchiseptica (SM2-4).

[7] = tested on: Bordetella bronchiseptica (S1); test: as above; assay type: cell-based; conditions: 18 h
Experimental: as §2, §3, §4, §5

[8] = Enterococcus Seriolicida KG86050
[9] = Enterococcus Seriolicida MS89060
[10] = Enterococcus Seriolicida MS89064
[11] = Enterococcus Seriolicida MS89066
[12] = Enterococcus Seriolicida MS89068
[13] = Enterococcus Seriolicida SE94-001
[14] = Enterococcus Seriolicida SE94-003
[15] = Enterococcus Seriolicida SE94-004
[16] = Enterococcus Seriolicida SE94-005

Row | SMILES | Tmax [1] [h] | LD50 at 336 h (in vivo) [mg/kg] | MIC [2] [µg/mL] | MIC [3] [µg/mL] | MIC ([4]; MRSA strain 891179) [µg/mL] | MIC ([4]; MRSA strain 891185) [µg/mL] | MIC ([4]; MRSA strain 891187) [µg/mL] | MIC ([4]; MRSA strain 891192) [µg/mL] | MIC ([4]; MRSA strain 900048) [µg/mL] | MIC ([4]; MRSA strain 900056) [µg/mL] | IC (Enterococcus from fish; Enterococcus Seriolicida HI) [µg/mL] | IC (Enterococcus from fish; [8]) [µg/mL] | IC (Enterococcus from fish; [9]) [µg/mL] | IC (Enterococcus from fish; [10]) [µg/mL] | IC (Enterococcus from fish; [11]) [µg/mL] | IC (Enterococcus from fish; [12]) [µg/mL] | IC (Enterococcus from fish; [13]) [µg/mL] | MIC (Enterococcus from fish) [µg/mL] | IC (Enterococcus from fish; [14]) [µg/mL] | IC (Enterococcus from fish; [15]) [µg/mL] | other results
1 | CC(Oc1cccc(Oc2ncc(C(F)(F)F)cc2Cl)c1)C(=O)C(C#N)c1ccc(Cl)c(Cl)c1 (stereo not drawn) [Compound No. 101, 4-[3-(3-chloro-5-trifluoromethyl-2-pyridyloxy)phenoxy]-2-(3,4-dichlorophenyl)-3-oxopentanonitrile] | 3 | – | – | – | – | – | – | – | – | – | – | – | – | – | – | – | – | – | – | – | –
2 | CC(Oc1cccc(Oc2ccc(C(F)(F)F)cc2Cl)c1)C(=O)C(C#N)c1ccc(Cl)c(Cl)c1 (stereo not drawn) [Compound No. 103, 4-[3-(2-chloro-4-trifluoromethylphenoxy)phenoxy]-2-(3,4-dichlorophenyl)-3-oxopentanonitrile] | – | > 2000 | ≤ 1 | 1 to 10 (≈ 1.89 to 18.9 µM) | ≤ 1 | ≤ 1 | ≤ 1 | ≤ 1 | ≤ 1 | ≤ 1 | ≤ 1 | ≤ 1 | ≤ 1 | ≤ 1 | ≤ 1 | ≤ 1 | ≤ 1 | ≤ 1 | ≤ 1 | ≤ 1 | IC (Enterococcus from fish; [16]): ≤ 1 µg/mL; MIC (Pasteurella from fish): 1 to 10 µg/mL (≈ 1.89 to 18.9 µM); IC (Pasteurella from fish; Pasteurella piscicida KP94-04): ≤10 (10-1 µg/ml); IC (Pasteurella from fish; Pasteurella piscicida KP94-05): ≤10 (10-1 µg/ml); IC (Pasteurella from fish; Pasteurella piscicida KP94-06): ≤10 (10-1 µg/ml); MIC [5]: ≤ 1 µg/mL
3 | CC(Oc1cc(Oc2ccc(C(F)(F)F)cc2Cl)ccc1Cl)C(=O)C(C#N)c1cccc(Br)c1 (stereo not drawn) [Compound No. 155, 2-(3-bromophenyl)-4-[5-(2-chloro-4-trifluoromethylphenoxy)-2-chlorophenoxy]-3-oxopentanonitrile] | 1 | > 2000 | ≤ 1 | 10 to 100 (≈ 17.4 to 174 µM) | ≤ 1 | ≤ 1 | ≤ 1 | ≤ 1 | ≤ 1 | ≤ 1 | ≤ 1 | ≤ 1 | ≤ 1 | ≤ 1 | ≤ 1 | ≤ 1 | ≤ 1 | ≤ 1 | ≤ 1 | ≤ 1 | MIC [6]: 10 to 100 µg/mL (≈ 17.4 to 174 µM); MIC [7]: 10 to 100 µg/mL (≈ 17.4 to 174 µM); IC (Enterococcus from fish; [16]): ≤ 1 µg/mL; MIC (Pasteurella from fish): 10 to 100 µg/mL (≈ 17.4 to 174 µM); IC (Pasteurella from fish; Pasteurella piscicida KP94-04): ≤100 (MIC-equivalent values obtained at the succesive 2-fold dilution of the sample are 100-10 µg/ml); IC (Pasteurella from fish; Pasteurella piscicida KP94-05): ≤100 (MIC-equivalent values obtained at the succesive 2-fold dilution of the sample are 100-10 µg/ml); IC (Pasteurella from fish; Pasteurella piscicida KP94-06): ≤100 (MIC-equivalent values obtained at the succesive 2-fold dilution of the sample are 100-10 µg/ml); MIC [5]: ≤ 1 µg/mL

— patent publication EP0768085A1, “ANTIBACTERIAL AGENT” (DAIICHI PHARMACEUTICAL CO., LTD., priority 1994, dated 1996)
